Assay results as given in ChEMBL document CHEMBL5113549, “Binding versus Enzymatic Processing of ε-Trimethyllysine Dioxygenase Substrate Analogues” (ACS Med Chem Lett, 2022).
Calls of active or inactive are those of the source. No cut-off for these calls is given here.

Key:
[1] = Binding affinity to human recombinant MBP-TMLD (42 to 421 residues) fusion protein expressed in Escherichia coli BL21-AI by isothermal titration calorimetry
Homo sapiens [2] = species on record: Homo sapiens; test: Binding affinity to human recombinant MBP-TMLD (42 to 421 residues) fusion protein expressed in Escherichia coli BL21-AI assessed as change in Gibbs free energy by isothermal titration calorimetry
Homo sapiens [3] = species on record: Homo sapiens; test: Binding affinity to human recombinant MBP-TMLD (42 to 421 residues) fusion protein expressed in Escherichia coli BL21-AI assessed as change in enthalpy by isothermal titration calorimetry
Homo sapiens [4] = species on record: Homo sapiens; test: Binding affinity to human recombinant MBP-TMLD (42 to 421 residues) fusion protein expressed in Escherichia coli BL21-AI assessed as change in entropy by isothermal titration calorimetry
Homo sapiens [5] = species on record: Homo sapiens; test: Substrate activity at human recombinant MBP-TMLD (42 to 421 residues) fusion protein expressed in Escherichia coli BL21-AI assessed as hydroxylated substrate formation at 500 uM in presence of alpha-ketoglutarate by proton 1D NMR spectroscopy
Homo sapiens [6] = species on record: Homo sapiens; test: Substrate activity at human recombinant MBP-TMLD (42 to 421 residues) fusion protein expressed in Escherichia coli BL21-AI assessed as ratio of succinate to hydroxylated substrate formation at 500 uM in presence of alpha-ketoglutarate by proton 1D NMR spectroscopy
Homo sapiens [7] = species on record: Homo sapiens; test: Binding affinity to human recombinant MBP-TMLD (42 to 421 residues) fusion protein expressed in Escherichia coli BL21-AI assessed as heat release at 300 uM in presence of co-factor OGA and Co2+ by isothermal titration calorimetry
Homo sapiens [8] = species on record: Homo sapiens; test: Binding affinity to human recombinant MBP-TMLD (42 to 421 residues) fusion protein expressed in Escherichia coli BL21-AI assessed as heat release at 300 uM in presence of co-factor OGA and Zn2+ by isothermal titration calorimetry
Homo sapiens [9] = species on record: Homo sapiens; test: Binding affinity to human recombinant MBP-TMLD (42 to 421 residues) fusion protein expressed in Escherichia coli BL21-AI assessed as heat release at 300 uM in presence of co-factor alpha-ketoglutarate and Zn2+ by isothermal titration calorimetry
Homo sapiens [10] = species on record: Homo sapiens; test: Binding affinity to human recombinant MBP-TMLD (42 to 421 residues) fusion protein expressed in Escherichia coli BL21-AI in presence of 1.18 to 2 fold excess of co-factor Zn2+/OGA by isothermal titration calorimetry

Row | SMILES | deltaG (Homo sapiens [2]) [kcal/mol] | deltaH (Homo sapiens [3]) [kcal/mol] | -TdeltaS (Homo sapiens [4]) [kcal/mol] | Activity (Homo sapiens [5]) [%] | Ratio (Homo sapiens [6]) | Activity (Homo sapiens [7]) | Activity (Homo sapiens [8]) | Activity (Homo sapiens [9]) | Activity (Homo sapiens [10]) | Kd [1] [µM]
1 | CCC[N+](C)(C)CCCC[C@H](N)C(=O)O | -6.9 | -1.4 | -5.5 | 25 | 3.4 |  |  |  |  | 9.2
2 | C[N+](C)(C)CCCCC[C@H](N)C(=O)O | -6.28 | -1.4 | -4.9 | 30 | 2.9 |  |  |  |  | 25
3 | CC(C)[N+](C)(C)CCCC[C@H](N)C(=O)O | -6.75 | -5.6 | -1.2 | 51 | 2.4 |  |  |  |  | 11.3
4 | CC[N+](C)(C)CCCC[C@H](N)C(=O)O | -7.12 | -6.37 | -0.75 | 83 | 2.1 |  |  |  |  | 6

Continued, in another order:

Row | deltaG (Homo sapiens [2]) [kcal/mol] | deltaH (Homo sapiens [3]) [kcal/mol] | -TdeltaS (Homo sapiens [4]) [kcal/mol] | Activity (Homo sapiens [5]) [%] | Ratio (Homo sapiens [6]) | Activity (Homo sapiens [7]) | Activity (Homo sapiens [8]) | Activity (Homo sapiens [9]) | Activity (Homo sapiens [10]) | SMILES | Kd [1] [µM]
5 |  |  |  | 12 | 3.9 |  |  |  |  | CC(C)C(=O)N[C@@H](CCCC[N+](C)(C)C)C(=O)[O-] | 
6 | -6.52 | -0.6 | -5.9 | 39 | 2.4 |  |  |  |  | CCCC[N+](C)(C)CCCC[C@H](N)C(=O)[O-] | 16.4
7 | -6.9 | -4.5 | -2.5 | 28 | 3.1 |  |  |  |  | C[N+](C)(C)CCC[C@H](N)C(=O)O | 7.6
8 | -7.15 | -5.48 | -1.66 | 97 | 1.3 | Active | Active | Active | Active | C[N+](C)(C)CCCC[C@H](N)C(=O)O | 5.78
